Results: ChEMBL document CHEMBL1201862, “PubChem BioAssay data set” (2004)
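All cell lines were grown in 96-well plates and treated with compound for 48 hours. GI50: concentration for 50% inhibition of growth.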 The source made the active and inactive calls. No stated cut-off is given here; in the data, active = GI50 up to about 1.1 µM and inactive = higher.

Tests used:
Assay in all cases: NCI tumour cell line growth inhibition, 48 h
[1] = system: HT-29
[2] = system: SF-268
[3] = system: LOX IMVI
[4] = system: TK-10
[5] = system: NCI-H522
[6] = system: SN12C
[7] = system: HL-60
[8] = system: SF-295
[9] = system: DMS-114
[10] = system: EKVX
[11] = system: OVCAR-5
[12] = system: KM12
[13] = system: SNB-78
[14] = system: HCC 2998
[15] = system: OVCAR-3
[16] = system: Malme-3M
[17] = system: UACC-257

Measured: GI50

N=C(N)N/N=C/c1c[nH]c2ccccc12
inactive: [1] > 100 µM | [2] > 100 µM | [3] > 100 µM | [4] > 100 µM | [5] 74.6 µM | [6] > 100 µM | [7] > 100 µM | [8] > 100 µM | [9] 81.8 µM | [10] > 100 µM | [11] > 100 µM | [12] > 100 µM | [13] > 100 µM | [14] > 100 µM | [15] > 100 µM | [16] > 100 µM | [17] > 100 µM

Clc1ccc(C2=Nc3ccccc3SC(c3cccs3)C2)cc1 (stereo not drawn)
inactive: [1] 14.3 µM | [2] 16.3 µM | [3] 7.19 µM | [4] 17.3 µM | [5] 18.1 µM | [6] 15.6 µM | [8] 15 µM | [9] 15.2 µM | [10] 17.5 µM | [11] 14.5 µM | [12] 10.7 µM | [13] 28.9 µM | [14] 17 µM | [15] 11.5 µM | [16] > 10 µM | [17] 15.7 µM

CCC1c2cc3n(c(=O)c2COC1O)Cc1c-3nc2ccccc2c1Cl (stereo not drawn)
inactive: [1] 70.1 µM | [2] 14.4 µM | [3] 18.6 µM | [4] > 100 µM | [5] 5.05 µM | [6] 10.1 µM | [7] 26.9 µM | [8] 20.9 µM | [9] 49.4 µM | [10] 66.1 µM | [11] > 100 µM | [12] > 100 µM | [13] > 100 µM | [14] 44.7 µM | [15] > 100 µM | [16] > 100 µM | [17] > 100 µM

COc1cc(/C=N\c2ccc(C(C)C)cc2)cc(OC)c1OC
inactive: [1] > 100 µM | [2] > 100 µM | [3] > 54.7 µM | [4] > 100 µM | [5] > 59.7 µM | [6] > 100 µM | [7] > 40.9 µM | [8] > 100 µM | [9] 49.5 µM | [10] > 100 µM | [11] > 100 µM | [12] > 100 µM | [13] > 100 µM | [15] > 100 µM | [16] > 100 µM | [17] > 100 µM

CO[C@H](C(=O)O[C@H]1C(=O)N2CC[C@@H]3CCC[C@H]1C32C)c1ccccc1 (stereo partly drawn)
inactive: [1] > 100 µM | [2] > 100 µM | [3] > 100 µM | [5] 66.2 µM | [6] > 100 µM | [7] > 100 µM | [8] > 100 µM | [9] > 100 µM | [10] > 100 µM | [11] > 100 µM | [12] > 100 µM | [13] > 100 µM | [14] 60.8 µM | [15] > 100 µM | [16] > 100 µM | [17] > 100 µM

CCCCCCCCCCCC(=O)c1c(O)cccc1O
inactive: [1] 22.3 µM | [2] 16.3 µM | [3] 18.8 µM | [4] 33 µM | [5] 18.7 µM | [6] 19 µM | [7] 19.9 µM | [8] 17.2 µM | [9] 19.2 µM | [10] 19.1 µM | [11] 15.2 µM | [12] 16 µM | [13] 21.8 µM | [14] 19.7 µM | [15] 17.5 µM | [16] 14.6 µM | [17] 16.7 µM

CCOC(=O)/C(=C\c1ccccc1)C(=O)O
inactive: [1] > 100 µM | [2] > 100 µM | [3] > 100 µM | [5] > 100 µM | [6] > 100 µM | [7] > 100 µM | [8] > 100 µM | [9] > 100 µM | [10] > 100 µM | [11] > 100 µM | [12] > 100 µM | [13] > 100 µM | [14] > 100 µM | [15] > 100 µM | [16] > 100 µM | [17] > 100 µM

O=c1c2cc(Br)ccc2n(C2OC(CO)C(O)C(O)C2O)c(=S)n1-c1ccccc1 (stereo not drawn)
inactive: [1] > 100 µM | [2] > 100 µM | [3] > 100 µM | [4] > 100 µM | [5] > 100 µM | [6] > 100 µM | [7] > 100 µM | [8] > 100 µM | [9] > 100 µM | [10] > 100 µM | [11] > 100 µM | [12] > 100 µM | [13] > 100 µM | [14] > 100 µM | [15] > 100 µM | [16] > 100 µM | [17] > 100 µM

CCOC(=O)C1=C(C)NC(=O)NC1c1ccc(OC)cc1OC (stereo not drawn)
inactive: [1] > 100 µM | [2] > 100 µM | [3] > 100 µM | [4] > 100 µM | [5] > 100 µM | [6] > 100 µM | [7] > 100 µM | [8] > 100 µM | [9] > 100 µM | [10] > 100 µM | [11] > 100 µM | [12] > 100 µM | [13] > 100 µM | [14] > 100 µM | [15] > 100 µM | [16] > 100 µM | [17] > 100 µM

CC1=C[C@H]2c3c([nH]c4ccccc34)C(c3c[nH]c4ccccc34)[C@H]2CC1 (stereo partly drawn)
inactive: [1] 3.3 µM | [3] 2.19 µM | [4] 14.5 µM | [5] 5.87 µM | [6] 3.75 µM | [7] 4.94 µM | [9] 5.74 µM | [10] 12.4 µM | [13] 3.53 µM | [14] 3.48 µM | [16] 18.5 µM | [17] 13.4 µM

CCCc1c2c([nH]c(=O)c1C)C(=O)c1[nH]c(=O)c(C)c(CCC)c1C2=O
inactive: [1] 4.75 µM | [2] 23 µM | [3] 8.11 µM | [4] 73.8 µM | [6] 3.64 µM | [7] 3.65 µM | [8] 47.6 µM | [9] 2.51 µM | [11] 35.6 µM | [13] 30.3 µM | [14] 38.4 µM | [15] 1.46 µM | [16] 3.73 µM | [17] 2.84 µM

O=C1C=CC(=O)c2nc3c(cc21)CCC3
inactive: [1] 45.9 µM | [2] 17.9 µM | [3] 15.3 µM | [4] 18.5 µM | [5] 12.6 µM | [6] 19.1 µM | [7] 4.67 µM | [8] > 100 µM | [9] 18.3 µM | [11] > 100 µM | [12] > 100 µM | [13] 18.5 µM | [14] > 100 µM | [15] 17.5 µM | [16] 17.5 µM | [17] 19.6 µM

COc1ccc2c(c1)CC1NC2Cc2ccccc21 (stereo not drawn)
inactive: [1] > 100 µM | [2] > 100 µM | [4] > 100 µM | [5] > 100 µM | [6] > 10 µM | [8] > 100 µM | [9] > 100 µM | [10] > 100 µM | [11] > 100 µM | [12] > 100 µM | [13] > 100 µM | [14] > 100 µM | [15] > 100 µM | [16] > 100 µM | [17] > 100 µM

N=C(N)NNC(=O)CCCCCCCC(=O)NNC(=N)N
inactive: [1] > 100 µM | [2] > 100 µM | [3] > 100 µM | [4] > 100 µM | [6] > 100 µM | [7] > 100 µM | [8] > 100 µM | [9] 62.7 µM | [10] > 100 µM | [11] > 100 µM | [12] > 100 µM | [13] > 100 µM | [14] > 100 µM | [16] > 100 µM | [17] > 100 µM

CN(C)c1ccc(C(C=C2c3ccccc3Sc3ccccc32)=C(C#N)C#N)cc1
inactive: [1] > 100 µM | [2] > 100 µM | [3] 48.4 µM | [4] > 100 µM | [6] > 100 µM | [7] > 100 µM | [8] 87.7 µM | [9] 56.4 µM | [10] > 100 µM | [11] > 100 µM | [12] > 100 µM | [13] 45.1 µM | [14] > 100 µM | [15] 45.7 µM | [16] > 100 µM | [17] > 100 µM

COc1nc(OC)c2c(=O)oc(-c3ccccc3)cc2n1
inactive: [1] > 100 µM | [2] > 100 µM | [4] > 100 µM | [5] > 100 µM | [6] > 100 µM | [8] > 100 µM | [9] > 100 µM | [10] > 100 µM | [11] > 100 µM | [12] > 100 µM | [13] > 100 µM | [14] > 100 µM | [15] > 10 µM | [16] > 100 µM | [17] > 100 µM

c1ccc2c(c1)CCc1c(-c3n[nH]c4c3CCc3ccccc3-4)n[nH]c1-2
inactive: [1] 76.7 µM | [2] > 100 µM | [3] > 100 µM | [4] > 100 µM | [6] > 100 µM | [7] > 100 µM | [8] > 100 µM | [9] > 100 µM | [10] > 100 µM | [11] > 100 µM | [12] > 100 µM | [13] > 100 µM | [14] > 100 µM | [15] > 100 µM | [16] > 100 µM | [17] > 100 µM
